Assay results reported in patent US12054553B2, “Immunotherapeutic tumor treatment method” (Nektar Therapeutics, priority 2017, dated 2024).

Key:
[1] = test system: STAT5 phosphorylation in lymphocytes; experiment: STAT5 phosphorylation in lymphocytes by flow cytometry after administration in mice; format: in vivo
Text: Conventional approaches, such as those involving radiolabeling a compound, administering it in vivo, and determining its clearance, may be used to determine whether a compound proposed to be a long-acting IL-2Rβ biased agonist is “long-acting”. For the purposes herein, the long-acting nature of an IL-2Rβ biased agonist is typically determined using flow cytometry to measure STAT5 phosphorylation in lymphocytes at various time points after administration of the agonist to be evaluated in mice.

[2] = test system: B16F10 mouse melanoma tumors; experiment: Immune cells in tumor microenvironment by flow cytometry, subcutaneous B16F10 melanoma; format: in vivo, mice

## aldesleukin: clinically available IL-2 (aldesleukin), unmodified recombinant IL-2
[1]
  time by which STAT5 phosphorylation signal is lost: around 24 hours
[2]; 5 and 7 days after treatment initiation
  activated natural killer (NK) cells: increased
[2]; by day 7, single dose RSLAIL-2 or 5 doses aldesleukin
  ratio of CD8/Treg in the tumor: 18
[2]; relative to vehicle
  total and memory CD8 cells as percentage of tumor-infiltrating lymphocytes: increased as a percentage of tumor-infiltrating lymphocytes; however, these effects were transient
[2]; single dose RSLAIL-2 or 5 doses aldesleukin
  percentage of Tregs (FoxP3+ subset of CD4 cells) in tumor: modest achieving significance on day 5
